Laboratory results as given in ChEMBL document CHEMBL4414658, “Melongenaterpenes A-L, Vetispirane-Type Sesquiterpenoids from the Roots of Solanum melongena” (J Nat Prod, 2019).
Active and inactive are the calls of the source.

Tests used:
Type in all cases: functional, cell-based
[1] = test system: HepG2; experiment: Cytotoxicity against human HepG2 cells assessed as reduction in cell viability incubated for 24 hrs by MTT assay
[2] = test system: HeLa; experiment: Cytotoxicity against human HeLa cells assessed as reduction in cell viability incubated for 24 hrs by MTT assay
[3] = test system: MCF7; experiment: Cytotoxicity against human MCF7 cells assessed as reduction in cell viability incubated for 24 hrs by MTT assay

Measured: Activity

C=C(CO)[C@@H]1CC[C@]2(C1)[C@H](CO)C[C@@H](O)[C@H](O)[C@H]2C
inactive: all assays above

C=C(CO[C@@H]1O[C@H](CO[C@@H]2OC[C@H](O)[C@H](O)[C@H]2O)[C@@H](O)[C@H](O)[C@H]1O)[C@@H]1CC[C@@]2(C1)C(C)=CC(=O)C[C@H]2C
inactive: all assays above

C=C(CO)[C@@H]1CC[C@]2(C1)[C@@H](CO)C[C@@H](O)[C@H](O)[C@H]2C
inactive: all assays above

C=C(CO)[C@@H]1CC[C@]2(C1)[C@H](CO)C[C@@H](O)C[C@H]2C
inactive: all assays above

C=C(CO[C@@H]1O[C@H](CO)[C@@H](O)[C@H](O)[C@H]1O)[C@@H]1CC[C@@]2(C1)[C@H](C)[C@@H](O)[C@H](O)C[C@H]2C(OC)OC
inactive: all assays above

C=C(CO[C@@H]1O[C@H](CO)[C@@H](O)[C@H](O)[C@H]1O)[C@@H]1CC[C@]2(C1)[C@@H](C(OC)OC)C[C@@H](O)[C@H](O)[C@H]2C
inactive: all assays above
